Assay results as given in patent publication US12576083B2, “Combinational therapy of LSD1 inhibitors with P21 activators in the treatment of cancer” (Istituto Europeo di Oncologia S.r.l., priority 2017, dated 2026).
“Also recorded” adds a separate entry of the source.

Assays:
Format in all cases: cell-based
[1] = test system: primary human melanoma cell lines (MMC-27B, MMC-49, MMC-936, MMC-35, MMC-38B, MMC-34); experiment: Proliferation of six primary human melanoma cell lines with or without MC2580; settings: MC2580 2 μM, 6 days, versus cell lines having a shorter doubling time
Method: FIG. 14 depicts the proliferation of six primary human melanoma cell lines (MMC-27B, MMC-49, MMC-936, MMC-35, MMC-38B, MMC-34) over 6 days with or without treatment of LSD1 inhibitor MC2580 (2 μM) was analyzed. “MC” stands for MC2580 treated cells. “DMSO” stands for control cells treated with DMSO.
The proliferation of six primary human melanoma cell lines (MMC-27B, MMC-49, MMC-936, MMC-35, MMC-38B, MMC-34) over 6 days with or without treatment of an LSD1 inhibitor (MC2580) was analyzed. “MC” stands for MC2580 treated cells. Control cells (“DMSO”) were treated with DMSO.

[2] = test system: Acute promyelocytic leukemia (APL) UF1 cells; experiment: UF1 cells treated with MC2580: proliferation and Wright-Giemsa staining; settings: 2 μM, 7 days, DMSO control
Method: (§1) FIGS. 2A-2E. […] (FIG. 2A) Relative proliferation of UF1 cells treated with MC2580 (2 μM) and/or retinoic acid (10 nM) for 1 week. (FIG. 2B) Representative light micrograph show Wright-Giemsa staining of UF1 cell after treatment for 1 week. […] Values are normalized against GAPDH. (FIG. 2D) Immunoblot of PML-RARα in treated UF1 cells with indicated inhibitors. LSD1 inhibitors induces differentiation without PML-RARα degradation. (tubulin serves as control). (FIG. 2E) summary of cell-cycle status of UF1 cells following 1 week treatment with indicated inhibitors. (retinoic acid low(l)=10 nM, LSD1i=LSD1 inhibitor=MC2580).
(§2) Acute promyelocytic leukemia (APL) UF1 cells were treated with 2 μM LSD1 inhibitor MC2580, 10 nM retinoic acid (RA), 2 μM LSD1 inhibitor MC2580 plus 10 nM RA, and DMSO (control) for 7 days. The proliferation of the treated cells were quantified before treatment and post-treatment from each of day 2 to day 7 (FIG. 2A). The cells following the 1 week treatment were analyzed under light micrographs using Wright-Giemsa staining (FIG. 2B). The LSD1-inhibition induced expression of CD11b gene expression were analyzed. The mRNA of CD11b of the treated cells under each condition were normalized using GAPDH (FIG. 2C). PML-RARα protein level in the treated cells was analyzed by immune-blotting using an antibody against PML-RARα. Immuno-blotting of tubulin was used as loading control. […]

PML-RARα = experiment: Immunoblot of PML-RARα in treated UF1 cells; settings: tubulin loading control
Method: as §1, §2

p21 gene = experiment: Chromosome Conformation Capture assays (3C-qPCR) in UF1 and NB4 cells; settings: UF1 and NB4 cells, 12, 24, or 36 hours
Method: FIG. 27 depicts results from chromosome conformation capture assays (3C-qPCR) performed with chromatin from UF1 and NB4 cells that were treated for indicated times with the LSD1 inhibitor MC2580. (NT: not treated).
Luciferase reporter assays were performed to measure the activity of enhancer 1 (“E1”) and enhancer 1 (“E2”) of the p21 gene promoter in 293T cells and the results are depicted in FIG. 26. The pGL3 plasmid without the enhancer region (empty) was used as a negative control. Chromosome Conformation Capture assays (3C-qPCR) were performed with chromatin from UF1 and NB4 cells that were treated with the LSD1 inhibitor MC2580 for 12, 24, or 36 hours and the results are depicted in FIG. 27. Untreated cells (“Neg”) were included as control.

[3] = test system: small cell lung carcinoma NCI-H69 cells; experiment: Cell cycle analysis of NCI-H69 cells; settings: 1 week treatment
Method: (§3) FIGS. 8A-8D. […] (FIG. 8B) Relative proliferation of NCI-H69 cells infected with SCR (control) or p21 shRNA treated with MC2580. (FIG. 8C) Summary of cell-cycle status of NCI-H69 cells following 10 days treatment with indicated inhibitors. (FIG. 8D) Immunoblot of P21 in MC2580-treated NCI-H69 cells. (SCR=Scramble shRNA, NI=Not Infected, LSD1i=LSD1 inhibitor=MC2580).
(§4) NCI-H69 cells were treated with p21-shRNA, scramble shRNA (SCR), LSD1 inhibitor MC2580, p21-shRNA plus MC2580, scramble shRNA (SCR) plus MC2580. Non-infected (NI) NCI-H69 cells were included as control. The proliferation of the treated cells were quantified before treatment and post-treatment from day 2, day 4, day 6, day 8, and day 10 (FIG. 8B). Cell cycle analysis were performed following the 1 week treatment.

p21 [4] = experiment: p21 protein (Western-blot) and p21 gene expression in UF1 cells
Method: FIGS. 6A-6B. LSD1 inhibition leads to further upregulation of P21 RNA and protein level but not in P21KD cells. (FIG. 6A) Immunoblot of P21 in MC2580-treated UF1 cells. […] (SCR=Scramble shRNA, NI=Not Infected, LSD1i=LSD1 inhibitor=MC2580).
UF1 cells were treated with p21-shRNA, scramble shRNA (SCR), LSD1 inhibitor MC2580, p21-shRNA plus MC2580, scramble shRNA (SCR) plus MC2580. Non-infected (NI) UF1 cells were included as control. Immuno-blotting of tubulin was used as loading control.

CD11b gene = CD11b gene expression in UF1 cells (mRNA normalized against GAPDH)
Method: as §1, §2

p21 [5] = experiment: Western-blot of p21 in NCI-H69 cells
Method: as §3, §4

NC1CC1c1ccc(NC(=O)C(Cc2ccccc2)NC(=O)OCc2ccccc2)cc1 (stereo not drawn) [MC2580]
proliferation of slow-cycling melanoma cell lines (MMC-38B, MMC-34) [1]: more affected | sensitivity of UF1 cells to LSD1 inhibitor [2]: sensitive | UF1 cell differentiation and PML-RARα degradation (PML-RARα): induces UF1 cells differentiation without PML-RARα degradation | looping of E1 and E2 enhancer regions to the transcription start site of the p21 gene (p21 gene): induces dynamic looping | NCI-H69 cells arrested at the G0/G1 phase [3]: More NCI-H69 cells were arrested at the G0/G1 phase | p21 gene (CDKN1A) expression in UF1 cells (p21 [4]): induces p21 expression; also recorded: expressed at a higher level | p21 protein level in UF1 cells (p21 [4]; Western-blot, tubulin loading control): increased | expression of the CD11b gene (myeloid differentiation marker) (CD11b gene): induces expression of the CD11b gene | p21 protein level in NCI-H69 cells (p21 [5]): increased
